This note sets out measurements from US20190076431A1, “SRC INHIBITOR TO BLOCK CELL SURFACE GRP78 EXPRESSION” (University of Southern California, priority 2016, published 2019).

For one assay, the system named is cell surface GRP78. Kind of assay: Biotinylated cell surface protein levels after DAS treatment of H929 MM cells (Western blot). To be noted: DAS 1 μM for the indicated time, biotinylated cell surface proteins. In kind it is cell-based. For orientation: In western blotting, separated proteins are transferred to a membrane and probed.
The next assay concerns csGRP78. Briefly: csGRP78 by flow cytometry in CD138+ MM cells from the bone marrow of a MM patient. In kind it is cell-based, human. To be noted: DAS 0.3 μM for 24 hr. The protocol:
FIG. 11. […] (A) Peripheral blood mononuclear cells were isolated from the bone marrow of a MM patient and sorted into CD138+ (blue) and CD138− (non-malignant) cells (orange) and csGRP78 was measured by flow cytometry, with RPMI-8226 MM cell line (red) analyzed in parallel. (B) CD138+ MM cells were treated with DAS (0.3 μM) for 24 hr and assayed for csGRP78 by flow cytometry.

Assay [1] is described as follows: Enhancement of proteasome based therapy (summary statement).

Protocol for cell surface GRP78: Cell Surface Protein Biotinylation and Avidin Pull-down—Following treatment, the cells were washed with cold PBS 3 times. EZ-Link Sulfo-NHS-SS-Biotin (Thermo Scientific, Waltham, Mass.) in PBS at 0.5 mg/ml was added and the cells were gently shaken at 4° C. for 30 min. To stop the biotinylation reaction, the biotin solution was removed, and the cells were rinsed three times with the quenching buffer containing Tris-Cl pH 7.4 in cold PBS. Then cells were rinsed with cold PBS and subjected to either sodium carbonate extraction (see below) or radioimmune precipitation (RIPA) lysis. The RIPA lysis buffer was supplemented with protease and phosphatase inhibitor cocktail (Thermo Scientific). Protein concentrations were determined by Bradford assay (Bio-Rad Lab, Hercules, Calif.). Part of the lysate was saved as whole cell lysate for Western blots to measure the total level of the target proteins. To purify the surface proteins, the remaining lysates were mixed with High Capacity NeutrAvidin Agarose Resin (Thermo Scientific) at room temperature for 1 h, and the resin was washed by RIPA buffer and centrifuged at 3,000× g for 1 min ten times. […]
Immunoblot Analysis—Protein samples were subjected to 10% or 15% SDS-PAGE and Western blot analysis as previously described (9). […] Protein levels were visualized and quantitated by ChemiDoc™ XRS+ Imager (Bio-Rad Lab) or LI-COR Odyssey (LI-COR Biosciences).

Turning to `Cc1nc(Nc2ncc(C(=O)Nc3c(C)cccc3Cl)s2)cc(N2CCN(CCO)CC2)n1` [Dasatinib, dasatinib], in the assay on cell surface GRP78, the “cell surface GRP78 expression” value is listed as “Suppresses Cell Surface GRP78”. Moreover, the “csGRP78 by flow cytometry” value in the assay with csGRP78 is “Suppresses Cell Surface GRP78”. Further, in assay [1], the “effect on proteasome based therapy” value was “enhance proteasome based therapy”.
